For 23 molecules, IC50 results are on record in patent US9133224B2, “Macrocyclic kinase inhibitors” (OSI Pharmaceuticals, LLC, priority 2010, dated 2015).

For assay [1], the target named is T1, GST-tagged full-length FAK enzyme (PTK2) (Homo sapiens, UniProt Q05397).
T1 construct: GST-tagged full-length FAK enzyme (PTK2, Invitrogen PV4085); GST; purchased Invitrogen PV4085
The assay can be described thus: Biochemical Omnia Assay (FAK). How it is done:
Biochemical Omnia Assay Protocol
The Omnia Assay (Invitrogen) has been optimized for GST-tagged full-length FAK enzyme (PTK2, Invitrogen PV4085).
All compound concentrations were assayed in duplicate. Initial compound dilutions were prepared at 100× concentration in 100% DMSO from a 10 mM stock solution. Compounds were further diluted 1:25 in assay buffer resulting in a 4× concentrated solution.
In running the assay, 5 μL of the above 4× concentrated compound solution (or 4% DMSO for positive controls) was added to the assay plate followed by 5 μL of a solution containing peptide (40 μM) and ATP (200 μM) in assay buffer. The reaction was initiated by the addition of 10 μL of FAK (50 nM) in assay buffer, or assay buffer alone for negative controls. The increase in fluorescence due to peptide phosphorylation was monitored continuously as a function of time using a Spectramax M5 plate reader (Molecular Devices) equipped with SoftMax Pro 5.2 software.
IC50 values were determined from the slopes of the linear progress curves by non-linear curve-fitting using GraphPad Prism 5 (GraphPad Software, Inc.).

The next assay has as its target T2, FAK (Homo sapiens, UniProt Q05397).
T2 construct: endogenous in cells; host or cells: U87MG glioblastoma cells (ATCC HTB-14)
The assay can be described thus: Cell-based capture ELISA for inhibition of FAK autophosphorylation [pY397] in U87MG cells. How it is done: Cell-Based Assays for Inhibition of FAK Autophosphorylation: MiaPaCa2 and U87MG
The ability of compounds to inhibit FAK autophosphorylation was determined in a cell-based capture ELISA assay using U87MG glioblastoma cells (ATCC, Cat # HTB-14) and the FAK [pY397]ELISA kit from Invitrogen (KHO0441). The assay determines the ability of compounds to block endogenous autophosphorylation of FAK stimulated by fibronectin. Cells plated on fibronectin coated 96-well plate were incubated with compounds at various concentrations in the complete growth medium for 2 h. Cell lysates were then prepared and FAK protein was captured onto a FAK antibody-coated 96-well ELISA plate. The phosphotyrosine content of FAK protein was then monitored by quantitation of degree of binding of an antibody that recognizes only the phosphorylated FAK at Y397 within the captured protein.
Reagents Provided in Biosource FAK [pY397]
Cultures of U87MG cells growing in MEM (Earles) containing non-essential amino acids, sodium pyruvate (1 mM), […] (1%) and 10% fetal bovine serum were detached by trypsin-EDTA and suspended in cell growth medium. Cells were then plated onto fibronectin (600 ng/well)-coated 96-well flat bottom plates at 1.7×10^4 cells per well in 60 uL cell growth medium and incubated overnight at 37° C. in a CO2 incubator.
Compound dilutions were prepared from 10 mM DMSO stocks by dilution in cell growth medium, the final concentration of DMSO in the assay being 0.6%. […] The cells were then incubated with compounds at 37° C. for 2 h. The medium was removed by aspiration and cells were lysed by addition of 20 uL of ice-cold cell lysis buffer per well. The plates were kept on ice for 20 min and 50 uL of standard diluent was added to each well. 50 uL of cell lysate from each well was transferred to respective wells in an assay plate and 50 uL of detection antibody was added to all wells except H1-H6 which were no antibody control wells. Capture assay plates were incubated overnight in a cold room.
Following incubation of the cell lysates and detection antibodies in the ELISA plate, the wells were washed 4 times with 120 uL of wash buffer (1×), then 100 uL of diluted HRP conjugated antibody (1:100 dil in diluent) was added to each well, and the plate was incubated at RT for 30 min. The wells were then washed for 4 times with 120 uL of wash buffer (1×) and 100 uL of chromogen was added to each well and incubated in the dark at RT for 5-10 min. 100 uL of stop solution was added to each well and the absorbance measured at 450 nm, 0.1 s.
Comparison of the assay signals obtained in the presence of compound with those of positive and negative controls (cells with no compound and no detection antibody being added), allows degree of inhibition of phospho-FAK [Y397] to be determined over a range of compound concentrations. […] The assay as described above was modified to determine the effect of inclusion of 50% (v/v) mouse or human plasma. In this assay, the compound plate was prepared as 2× concentration in 100 uL of 100% mouse or human plasma, and 60 uL of this was added to 60 uL of culture medium and incubated at 37° C. incubator for 2 h. The rest of the assay was carried out as described above.

Setting [2] is: mean IC50, [ATP] = 50uM, read-out: FAK Activity Biochemical OMNIA, [ATP] = 50uM.
Setting [3] is: 50% (v/v) human plasma, mean IC50, read-out: FAK Activity Mechanistic (U87MG) HP.
Setting [4] is: 50% (v/v) mouse plasma, mean IC50, read-out: FAK Activity Mechanistic (U87MG) MP.
[5] abbreviates: no plasma present, mean IC50, read-out: FAK Activity Mechanistic (U87MG) NP.

Like-named read-outs stand apart in the source and are kept apart here.

T2 sequence (Q05397 whole entry): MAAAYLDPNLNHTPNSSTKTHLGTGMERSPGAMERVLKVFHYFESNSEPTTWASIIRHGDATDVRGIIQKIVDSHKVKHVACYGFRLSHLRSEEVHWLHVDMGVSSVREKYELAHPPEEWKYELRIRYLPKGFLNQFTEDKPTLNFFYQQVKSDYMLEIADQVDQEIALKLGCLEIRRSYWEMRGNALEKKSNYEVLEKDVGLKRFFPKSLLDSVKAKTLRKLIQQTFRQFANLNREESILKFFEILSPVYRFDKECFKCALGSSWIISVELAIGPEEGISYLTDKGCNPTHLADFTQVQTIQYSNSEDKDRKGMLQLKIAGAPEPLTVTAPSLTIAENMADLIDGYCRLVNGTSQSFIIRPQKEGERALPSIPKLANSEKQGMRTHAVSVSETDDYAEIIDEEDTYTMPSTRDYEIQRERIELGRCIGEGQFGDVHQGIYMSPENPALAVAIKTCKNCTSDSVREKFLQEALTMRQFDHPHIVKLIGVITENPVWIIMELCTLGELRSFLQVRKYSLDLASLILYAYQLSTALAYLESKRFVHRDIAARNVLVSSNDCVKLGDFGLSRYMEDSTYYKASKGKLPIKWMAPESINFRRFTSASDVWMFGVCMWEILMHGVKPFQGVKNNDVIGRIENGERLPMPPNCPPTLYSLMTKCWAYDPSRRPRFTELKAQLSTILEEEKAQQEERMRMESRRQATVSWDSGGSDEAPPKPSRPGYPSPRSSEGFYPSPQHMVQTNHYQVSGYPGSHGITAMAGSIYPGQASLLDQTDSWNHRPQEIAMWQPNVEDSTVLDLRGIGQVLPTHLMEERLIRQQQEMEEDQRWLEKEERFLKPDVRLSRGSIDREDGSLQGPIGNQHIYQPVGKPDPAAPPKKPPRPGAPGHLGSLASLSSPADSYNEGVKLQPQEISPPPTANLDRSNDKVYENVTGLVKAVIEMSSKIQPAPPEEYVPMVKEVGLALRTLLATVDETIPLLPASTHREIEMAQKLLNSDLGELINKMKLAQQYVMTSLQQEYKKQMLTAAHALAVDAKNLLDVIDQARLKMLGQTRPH
T1 sequence (Q05397 whole entry): as above

For the molecule `CCO[P@@]1(=O)Cc2ccc(c(OC)c2)Nc2ncc(C(F)(F)F)c(n2)Nc2cc(F)c(cc2C(=O)NC)-c2cnn(c2)CCCO1.CCO[P@]1(=O)Cc2ccc(c(OC)c2)Nc2ncc(C(F)(F)F)c(n2)Nc2cc(F)c(cc2C(=O)NC)-c2cnn(c2)CCCO1` (mixture of isomers) [Example 7], the IC50 (in assay [1] (setting [2]); on FAK (setting [3]); at FAK (setting [4]); at FAK (setting [5])) was less than 400 nM in each case.

As for `CCOP1(=O)Cc2cc(OC)c(cc2Cl)Nc2ncc(C(F)(F)F)c(n2)Nc2ccc(nc2C(=O)NC)-c2cnn(c2)CCCO1` (single isomer, unassigned) [Example 56A], the IC50 was less than 400 nM in assay [1], more than 4000 nM on FAK (setting [3]), 400 to 4000 nM on FAK (setting [4]) and less than 400 nM at FAK (setting [5]).

In the case of `CCOP1(=O)Cc2ccc(c(OC)c2)Nc2ncc(C(F)(F)F)c(n2)Nc2ccc(c(C)c2C(=O)NC)-c2cnn(c2)CCCO1` (racemic) [Example 29], the IC50 in assay [1] was less than 400 nM; on FAK (setting [4]) it was more than 4000 nM; at FAK (setting [5]) it was 400 to 4000 nM.

Turning to `CCOP1(=O)Cc2ccc(c(Cl)c2)Nc2ncc(C(F)(F)F)c(n2)Nc2ccc(nc2C(=O)NC)-c2cnn(c2)CCCCO1` (racemic) [Example 25], the IC50 (in assay [1]; at FAK (setting [3]); at FAK (setting [5])) was less than 400 nM each time.

In the case of `CCNC(=O)c1cc2ccc1Nc1nc(ncc1C(F)(F)F)Nc1ccc(cc1)CP(=O)(OCC)OCCCn1cc-2cn1` (racemic) [Example 10], the IC50 was less than 400 nM in assay [1], more than 4000 nM on FAK (setting [3]) and 400 to 4000 nM at FAK (setting [5]).

For `CCOP1(=O)Cc2ccc(c(OC)c2)Nc2ncc(C(F)(F)F)c(n2)Nc2ccc(nc2C(=O)NC)-c2c(C)nn(c2C)CCCO1` (racemic) [Example 43], the results for the IC50 (in assay [1] (setting [2]); on FAK (setting [3]); at FAK (setting [5])) were less than 400 nM, 400 to 4000 nM and less than 400 nM, respectively.

Regarding `CCOP1(=O)Cc2ccc(c(OC)c2)Nc2ncc(C(F)(F)F)c(n2)Nc2ccc(nc2C(=O)NC)-c2cn(nc2C)CCCO1` (racemic) [Example 34], the IC50 (in assay [1] (setting [2]); at FAK (setting [3]); on FAK (setting [5])) was less than 400 nM throughout.

Regarding `CCOP1(=O)Cc2ccc(c(OC)c2)Nc2ncc(C(F)(F)F)c(n2)Nc2ccc(nc2C(=O)NC)-c2cnn(c2)CC(F)(F)CO1` (single isomer, unassigned) [Example 59B], the IC50 in assay [1] was less than 400 nM; on FAK (setting [3]), 400 to 4000 nM; at FAK (setting [5]) it was 400 to 4000 nM.

Turning to `CCCP1(=O)Cc2ccc(c(OC)c2)Nc2ncc(C(F)(F)F)c(n2)Nc2ccc(nc2C(=O)NC)-c2cnn(c2)CCCO1` (racemic) [Example 37], the IC50 is less than 400 nM in assay [1] (setting [2]), less than 400 nM at FAK (setting [3]), 400 to 4000 nM on FAK (setting [4]) and less than 400 nM on FAK (setting [5]).

As for `CCOP1(=O)Cc2ccc(c(OC)c2)Nc2ncc(C(F)(F)F)c(n2)Nc2ccc(nc2C(=O)NC)-c2cnn(c2C)CCCO1` (racemic) [Example 35], the IC50 (in assay [1] (setting [2]); at FAK (setting [3]); at FAK (setting [5])) was less than 400 nM in each case.

Take `CCOP1(=O)Cc2ccc(c(OC)c2)Nc2ncc(C(F)(F)F)c(n2)Nc2ccc(nc2C(=O)NC)-c2cnn(c2)CCCO1` (racemic) [Example 6]: the IC50 (in assay [1]; at FAK (setting [3]); at FAK (setting [5])) was less than 400 nM throughout.

As for `CCOP1(=O)Cc2ccc(cc2)Nc2ncc(C(F)(F)F)c(n2)Nc2ccc(cc2C(=O)N(C)C)-c2cnn(c2)CCCO1` (racemic) [Example 11], the IC50 in assay [1] was less than 400 nM; at FAK (setting [3]), 400 to 4000 nM; at FAK (setting [5]), less than 400 nM.

On to `CCP1(=O)Cc2ccc(c(OC)c2)Nc2ncc(C(F)(F)F)c(n2)Nc2ccc(nc2C(=O)NC)-c2cnn(c2)CCCO1` (racemic) [Example 67], for which the IC50 (in assay [1] (setting [2]); at FAK (setting [3]); on FAK (setting [4]); at FAK (setting [5])) was less than 400 nM each time.

Take `CCOP1(=O)Cc2ccc(c(C)c2)Nc2ncc(C(F)(F)F)c(n2)Nc2ccc(nc2C(=O)NC)-c2cnn(c2)CCCO1` (racemic) [Example 33]: the IC50 (in assay [1]; on FAK (setting [3]); at FAK (setting [5])) was less than 400 nM throughout.

`CCOP1(=O)Cc2ccc(c(OC)c2)Nc2ncc(C(F)(F)F)c(n2)Nc2ccc(nc2C(=O)NC)-c2cn(nc2C)CCCO1` (single isomer, unassigned) [Example 34A]: the IC50 in assay [1] (setting [2]) is less than 400 nM; at FAK (setting [3]) it was 400 to 4000 nM; on FAK (setting [5]) it was less than 400 nM.

With `CCOP1(=O)Cc2ccc(c(OC)c2)Nc2ncc(C(F)(F)F)c(n2)Nc2ccc(nc2C(=O)NC)-c2cnn(c2)CCCO1` (single isomer, unassigned) [Example 6B], the IC50 (in assay [1]; on FAK (setting [3]); on FAK (setting [5])) was less than 400 nM in each case.

Turning to `CNC(=O)c1nc2ccc1Nc1nc(ncc1C(F)(F)F)Nc1ccc(cc1OC)CP(=O)(C(C)C)OCCCn1cc-2cn1` (racemic) [Example 68], the IC50 (in assay [1] (setting [2]); at FAK (setting [3]); on FAK (setting [4]); at FAK (setting [5])) was less than 400 nM each time.

For `CNC(=O)c1nc2ccc1Nc1nc(ncc1C(F)(F)F)Nc1ccc(cc1OC)CP(=O)(C(C)C)OCCCn1cc-2cn1` (single isomer, unassigned) [Example 68A], the IC50 in assay [1] (setting [2]) is less than 400 nM; on FAK (setting [3]) it was 400 to 4000 nM; on FAK (setting [4]) it was 400 to 4000 nM; on FAK (setting [5]), less than 400 nM.

As for `CCOP1(=O)Cc2ccc(c(OC)c2)Nc2cc(c(C(F)(F)F)cn2)Nc2ccc(nc2C(=O)NC)-c2cnn(c2)CCCO1` (racemic) [Example 36], the IC50 is less than 400 nM in assay [1], less than 400 nM at FAK (setting [3]), 400 to 4000 nM at FAK (setting [4]) and less than 400 nM on FAK (setting [5]).

Turning to `CCCP1(=O)Cc2ccc(c(OC)c2)Nc2ncc(C(F)(F)F)c(n2)Nc2ccc(nc2C(=O)NC)-c2cnn(c2)CCCO1` (single isomer, unassigned) [Example 37A], the IC50 in assay [1] (setting [2]) is less than 400 nM; at FAK (setting [3]), 400 to 4000 nM; at FAK (setting [4]), 400 to 4000 nM; at FAK (setting [5]) it was less than 400 nM.

As for `CCNC(=O)c1nc2ccc1Nc1nc(ncc1C(F)(F)F)Nc1ccc(cc1OC)CP(=O)(OCC)OCC1(COC1)Cn1cc-2cn1` (single isomer, unassigned) [Example 45A], the IC50 is less than 400 nM in assay [1], 400 to 4000 nM on FAK (setting [3]) and less than 400 nM on FAK (setting [5]).

For `CCOP1(=O)Cc2ccc(c(OC)c2)Nc2ncc(C(F)(F)F)c(n2)Nc2ccc(nc2C(=O)NC)-c2cnn(c2)CC(F)(F)CO1` (single isomer, unassigned) [Example 59A], the IC50 in assay [1] (read-out: FAK Activity Biochemical OMNIA, [ATP] = 50uM, mean IC50, [ATP] = 50uM) was less than 400 nM; at FAK (setting [3]), 400 to 4000 nM; at FAK (setting [5]), less than 400 nM.

Regarding `CCOP1(=O)Cc2ccc(c(OC)c2)Nc2ncc(C(F)(F)F)c(n2)Nc2ccc(nc2C(=O)NC)-c2cnn(c2)C(C)(C)CCO1` (single isomer, unassigned) [Example 50A], the IC50 in assay [1] (setting [2]) is less than 400 nM; at FAK (setting [3]), 400 to 4000 nM; on FAK (setting [5]) it was less than 400 nM.
